Biological target: T1, glycosyltransferase in crude enzyme liquid from pink carnation petals (Dianthus caryophyllus, UniProt E3W9M2)
T1 construct: Thus, a crude enzyme liquid was obtained; from tissue; host or cells: pink petals of carnation, variety Beam Cherry (ammonium sulfate precipitate, desalted)
T1 sequence (E3W9M2 31-502): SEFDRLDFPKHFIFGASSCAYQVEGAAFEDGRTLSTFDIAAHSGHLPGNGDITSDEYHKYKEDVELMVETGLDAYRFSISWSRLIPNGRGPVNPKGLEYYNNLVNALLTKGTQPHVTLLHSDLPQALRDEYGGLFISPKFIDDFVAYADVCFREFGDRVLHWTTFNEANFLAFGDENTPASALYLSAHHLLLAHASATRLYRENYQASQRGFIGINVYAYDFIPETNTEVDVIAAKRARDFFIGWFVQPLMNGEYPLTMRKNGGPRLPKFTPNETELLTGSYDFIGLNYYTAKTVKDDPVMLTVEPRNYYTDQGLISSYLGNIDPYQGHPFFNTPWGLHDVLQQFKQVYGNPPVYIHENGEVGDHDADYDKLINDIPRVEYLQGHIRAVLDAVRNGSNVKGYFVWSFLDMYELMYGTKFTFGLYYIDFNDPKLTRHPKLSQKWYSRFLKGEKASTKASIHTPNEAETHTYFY
Assay: Detection of glycosyl transfer reaction with carnation petal crude enzyme liquid (HPLC)
Type: biochemical
Conditions: pH 5.6, 30° C.
Method: Pink petals of a carnation (variety: “Beam Cherry”) were ground into a powder in liquid nitrogen using a mortar and a pestle. The obtained powder was added in a stepwise manner to a 50 mM potassium phosphate buffer (pH 7.2) and dissolved therein via stirring to prevent freezing. Then, an insoluble fraction was removed by centrifugation. A saturate ammonium sulfate solution was added to the obtained supernatant so as to result in a concentration of 80%. The mixture was left on ice for 5 minutes. The precipitated protein was collected by centrifugation. A 10 mM potassium phosphate buffer was added thereto for complete dissolution. The obtained solution was applied to a Sephadex G-25 gelfiltration support (GE Healthcare) for desalting. Thus, a crude enzyme liquid was obtained. […]
Glycosyltransferase activity was examined using a crude enzyme extracted from pink petals of a carnation (variety: “Beam Cherry”) or petals of a delphinium (variety: “marine blue”) in the manner described in Example 1. […] Then, the supernatant was analyzed by HPLC. […]

Row | Structure (SMILES) | Function as sugar donor (generation of cyanidin 3,5-O-β-diglucoside from cyanidin 3-glucoside) (carnation crude enzyme liquid, 40 minutes) | Recognition as sugar donor by carnation glycosylation enzyme (carnation crude enzyme, cyanidin 3-O-β-glucoside 200 μM, sugar donor 1 mM, 15 minutes)
1 | COc1cc(C(=O)OC2OC(CO)C(O)C(O)C2O)ccc1O (centres unmarked) | functions as a sugar donor | –
2 | O=C(OC1OC(CO)C(O)C(O)C1O)c1ccc(O)cc1 (stereo not drawn) [1-O-β-p-hydroxybenzoyl glucose] | – | recognize 1-O-β-p-hydroxybenzoyl glucose as a sugar donor

— patent US8722868B2, “Glycosyltransferase, novel glycosyltransferase gene, and novel sugar donor compound” (National University Corporation Tokyo University of …, priority 2009, dated 2014)
